Experimental data from article PMC7531004, “Discovery of gramicidin A analogues with altered activities by multidimensional screening of a one-bead-one-compound library” (Nature Communications, 2020).
Where a SMILES comes first, the peptide text is derived from it. [ ]: non-standard residue; d: D form. The star is where a group is joined. NHCH2CH2OH = OCCN*; For = O=C*

Columns and labels:
[1] = H+/Na+ transport assay of bead-derived peptides (one-point); assay type: biochemical; parameters: key: relative activity; mean of two control wells = 1.00; conditions: bead-derived peptide solution, EYPC/EYPG LUVs;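 also: relative to parent gramicidin A activity set to 1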
How it was run: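 One-point screen: peptide + pyranine-loaded LUVs, 30 min RT with vortexing, 96-well. Read-out is fluorescence intensity scaled as 100 × (Ix – I0)/(Imax – I0). Imax from Triton X-100, I0 from untreated vesicles, and the mean of the two control wells is set to 1.00.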

[2] = tested on: P388 mouse leukemia cells; conditions: 92 h
How it was run: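 P388 cells at 1 × 10^4 cells/mL (final) were exposed to library peptides (stocks diluted 250-fold in RPMI1640/10% FBS) for 92 h at 37 °C, 5% CO2. Viable cells were counted by WST-1/1-methoxy PMS (4 h), absorbance 415 nm, and expressed as cell viability (%).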

[3] = tested on: Streptococcus pyogenes SSI-9; test: Antibacterial activity assay of bead-derived peptides (three concentrations); assay type: cell-based; parameters: key: +++: inhibition by the 640-fold diluted peptide solution; ++: inhibition by the 160-fold diluted solution; +: inhibition by the 40-fold diluted solution; -: no inhibition; conditions: S. pyogenes, bead-derived peptide solution, three concentrations
How it was run: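 Library peptide stock applied undiluted, 4-fold and 16-fold diluted in DMSO to S. pyogenes SSI-9 (2 × 10^5 CFU) in cation-adjusted Mueller Hinton broth with 5% laked horse blood. After 18 h at 37 °C, growth judged by visible cell precipitation.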

| SMILES | H+/Na+ transport activity normalized against the value of 1 (1.00) [1] | cell viability/% [2] [%] | antibacterial activity [3] |
| --- | --- | --- | --- |
| CC(C)C[C@@H](NC(=O)[C@H](C)NC(=O)[C@H](NC(=O)[C@H](C)NC(=O)CNC(=O)[C@@H](NC=O)C(C)C)[C@H](C)O)C(=O)N[C@H](C(=O)N[C@H](CC(C)C)C(=O)N[C@@H](Cc1c[nH]c2ccccc12)C(=O)N[C@H](CC(C)C)C(=O)N[C@@H](Cc1c[nH]c2ccccc12)C(=O)N[C@H](CC(C)C)C(=O)N[C@@H](Cc1c[nH]c2ccccc12)C(=O)N[C@H](CC(C)C)C(=O)N[C@@H](Cc1c[nH]c2ccccc12)C(=O)NCCO)C(C)C [compound 10497] (For-VGA[dT]A[dL]V[dL]W[dL]W[dL]W[dL]W-NHCH2CH2OH) | 1.24 | 100.0 | - |
| CC(C)C[C@@H](NC(=O)[C@H](C)NC(=O)CNC(=O)[C@@H](NC=O)C(C)C)C(=O)N[C@@H](C)C(=O)N[C@H](CC(C)C)C(=O)N[C@H](C(=O)N[C@H](CC(C)C)C(=O)N[C@@H](Cc1c[nH]c2ccccc12)C(=O)N[C@@H](C(=O)N[C@@H](Cc1c[nH]c2ccccc12)C(=O)N[C@@H](C(=O)N[C@@H](Cc1c[nH]c2ccccc12)C(=O)N[C@@H](C(=O)N[C@@H](Cc1c[nH]c2ccccc12)C(=O)NCCO)C(C)C)C(C)C)[C@H](C)O)C(C)C [compound 4532] (For-VGA[dL]A[dL]V[dL]W[dT]W[dV]W[dV]W-NHCH2CH2OH) | 1.11 | 100.0 | - |
| CC(C)C[C@@H](NC(=O)[C@H](C)NC(=O)CNC(=O)[C@@H](NC=O)C(C)C)C(=O)N[C@@H](C)C(=O)N[C@H](CC(C)C)C(=O)N[C@H](C(=O)N[C@H](CC(C)C)C(=O)N[C@@H](Cc1c[nH]c2ccccc12)C(=O)N[C@@H](C(=O)N[C@@H](Cc1c[nH]c2ccccc12)C(=O)N[C@@H](C(=O)N[C@@H](Cc1c[nH]c2ccccc12)C(=O)N[C@H](CC(C)C)C(=O)N[C@@H](Cc1c[nH]c2ccccc12)C(=O)NCCO)C(C)C)[C@H](C)O)C(C)C [compound 11660] (For-VGA[dL]A[dL]V[dL]W[dT]W[dV]W[dL]W-NHCH2CH2OH) | 1.09 | 100.0 | - |
| CC(C)C[C@@H](NC(=O)[C@H](C)NC(=O)[C@H](NC(=O)[C@H](C)NC(=O)CNC(=O)[C@@H](NC=O)C(C)C)[C@H](C)O)C(=O)N[C@H](C(=O)N[C@H](CC(C)C)C(=O)N[C@@H](Cc1c[nH]c2ccccc12)C(=O)N[C@H](CC(C)C)C(=O)N[C@@H](Cc1c[nH]c2ccccc12)C(=O)N[C@@H](C(=O)N[C@@H](Cc1c[nH]c2ccccc12)C(=O)N[C@@H](C(=O)N[C@@H](Cc1c[nH]c2ccccc12)C(=O)NCCO)C(C)C)C(C)C)C(C)C [compound 9125] (For-VGA[dT]A[dL]V[dL]W[dL]W[dV]W[dV]W-NHCH2CH2OH) | 1.04 | 44.2 | - |
| CC(C)C[C@@H](NC(=O)[C@H](Cc1c[nH]c2ccccc12)NC(=O)[C@H](NC(=O)[C@H](Cc1c[nH]c2ccccc12)NC(=O)[C@H](NC(=O)[C@H](Cc1c[nH]c2ccccc12)NC(=O)[C@@H](CC(C)C)NC(=O)[C@@H](NC(=O)[C@H](NC(=O)[C@H](C)NC(=O)[C@H](NC(=O)[C@H](C)NC(=O)CNC(=O)[C@@H](NC=O)C(C)C)C(C)C)C(C)C)C(C)C)C(C)C)[C@H](C)O)C(=O)N[C@@H](Cc1c[nH]c2ccccc12)C(=O)NCCO [compound 8633] (For-VGA[dV]A[dV]V[dL]W[dV]W[dT]W[dL]W-NHCH2CH2OH) | 1.00 | 61.8 | - |
| CC(C)C[C@@H](NC(=O)[C@H](C)NC(=O)CNC(=O)[C@@H](NC=O)C(C)C)C(=O)N[C@@H](C)C(=O)N[C@@H](C(=O)N[C@H](C(=O)N[C@@H](C(=O)N[C@@H](Cc1c[nH]c2ccccc12)C(=O)N[C@@H](C(=O)N[C@@H](Cc1c[nH]c2ccccc12)C(=O)N[C@@H](C(=O)N[C@@H](Cc1c[nH]c2ccccc12)C(=O)N[C@H](CC(C)C)C(=O)N[C@@H](Cc1c[nH]c2ccccc12)C(=O)NCCO)C(C)C)C(C)C)[C@H](C)O)C(C)C)C(C)C [compound 4778] (For-VGA[dL]A[dV]V[dT]W[dV]W[dV]W[dL]W-NHCH2CH2OH) | 1.09 | 100.0 | - |
| CC(C)C[C@@H](NC(=O)[C@H](C)NC(=O)[C@H](NC(=O)[C@H](C)NC(=O)CNC(=O)[C@@H](NC=O)C(C)C)C(C)C)C(=O)N[C@H](C(=O)N[C@@H](C(=O)N[C@@H](Cc1c[nH]c2ccccc12)C(=O)N[C@H](CC(C)C)C(=O)N[C@@H](Cc1c[nH]c2ccccc12)C(=O)N[C@@H](C(=O)N[C@@H](Cc1c[nH]c2ccccc12)C(=O)N[C@H](CC(C)C)C(=O)N[C@@H](Cc1c[nH]c2ccccc12)C(=O)NCCO)C(C)C)C(C)C)C(C)C [compound 7146] (For-VGA[dV]A[dL]V[dV]W[dL]W[dV]W[dL]W-NHCH2CH2OH) | 1.17 | 100.0 | + |
| CNC(=O)C[C@@H](NC(=O)[C@H](Cc1c[nH]c2ccccc12)NC(=O)[C@@H](CC(C)C)NC(=O)[C@H](Cc1c[nH]c2ccccc12)NC(=O)[C@H](NC(=O)[C@H](Cc1c[nH]c2ccccc12)NC(=O)[C@@H](CC(C)C)NC(=O)[C@@H](NC(=O)[C@H](NC(=O)[C@H](C)NC(=O)[C@H](NC(=O)[C@H](C)NC(=O)CNC(=O)[C@@H](NC=O)C(C)C)C(C)C)C(C)C)C(C)C)C(C)C)C(=O)N[C@@H](Cc1c[nH]c2ccccc12)C(=O)NCCO [compound 2526] (For-VGA[dV]A[dV]V[dL]W[dV]W[dL]W[dD](NHMe)W-NHCH2CH2OH) | 1.02 | 100.0 | - |
| CC(C)C[C@@H](NC(=O)[C@H](C)NC(=O)CNC(=O)[C@@H](NC=O)C(C)C)C(=O)N[C@@H](C)C(=O)N[C@H](CC(C)C)C(=O)N[C@H](C(=O)N[C@@H](C(=O)N[C@@H](Cc1c[nH]c2ccccc12)C(=O)N[C@@H](C(=O)N[C@@H](Cc1c[nH]c2ccccc12)C(=O)N[C@H](CC(C)C)C(=O)N[C@@H](Cc1c[nH]c2ccccc12)C(=O)N[C@H](CC(C)C)C(=O)N[C@@H](Cc1c[nH]c2ccccc12)C(=O)NCCO)C(C)C)[C@H](C)O)C(C)C [compound 2158] (For-VGA[dL]A[dL]V[dT]W[dV]W[dL]W[dL]W-NHCH2CH2OH) | 1.18 | 100.0 | - |
| CC(C)C[C@@H](NC(=O)[C@H](C)NC(=O)CNC(=O)[C@@H](NC=O)C(C)C)C(=O)N[C@@H](C)C(=O)N[C@H](CC(C)C)C(=O)N[C@H](C(=O)N[C@@H](C(=O)N[C@@H](Cc1c[nH]c2ccccc12)C(=O)N[C@@H](C(=O)N[C@@H](Cc1c[nH]c2ccccc12)C(=O)N[C@H](CC(C)C)C(=O)N[C@@H](Cc1c[nH]c2ccccc12)C(=O)N[C@H](CC(C)C)C(=O)N[C@@H](Cc1c[nH]c2ccccc12)C(=O)NCCO)C(C)C)[C@H](C)O)C(C)C [compound 10710] (For-VGA[dL]A[dL]V[dT]W[dV]W[dL]W[dL]W-NHCH2CH2OH) | 1.05 | 100.0 | - |
| CNC(=O)C[C@@H](NC(=O)[C@H](Cc1c[nH]c2ccccc12)NC(=O)[C@H](NC(=O)[C@H](Cc1c[nH]c2ccccc12)NC(=O)[C@@H](CC(C)C)NC(=O)[C@H](Cc1c[nH]c2ccccc12)NC(=O)[C@@H](CC(C)C)NC(=O)[C@@H](NC(=O)[C@@H](CC(C)C)NC(=O)[C@H](C)NC(=O)[C@@H](CC(C)C)NC(=O)[C@H](C)NC(=O)CNC(=O)[C@@H](NC=O)C(C)C)C(C)C)C(C)C)C(=O)N[C@@H](Cc1c[nH]c2ccccc12)C(=O)NCCO [compound 10008] (For-VGA[dL]A[dL]V[dL]W[dL]W[dV]W[dD](NHMe)W-NHCH2CH2OH) | 1.15 | 100.0 | - |
| CNC(=O)C[C@@H](NC(=O)[C@@H](NC(=O)[C@H](NC(=O)[C@H](C)NC(=O)[C@@H](CC(C)C)NC(=O)[C@H](C)NC(=O)CNC(=O)[C@@H](NC=O)C(C)C)C(C)C)C(C)C)C(=O)N[C@@H](Cc1c[nH]c2ccccc12)C(=O)N[C@@H](C(=O)N[C@@H](Cc1c[nH]c2ccccc12)C(=O)N[C@H](CC(C)C)C(=O)N[C@@H](Cc1c[nH]c2ccccc12)C(=O)N[C@H](CC(C)C)C(=O)N[C@@H](Cc1c[nH]c2ccccc12)C(=O)NCCO)C(C)C [compound 3584] (For-VGA[dL]A[dV]V[dD](NHMe)W[dV]W[dL]W[dL]W-NHCH2CH2OH) | 1.22 | 100.0 | - |
| CC(C)C[C@@H](NC(=O)[C@H](Cc1c[nH]c2ccccc12)NC(=O)[C@H](NC(=O)[C@H](Cc1c[nH]c2ccccc12)NC(=O)[C@H](NC(=O)[C@@H](NC(=O)[C@H](NC(=O)[C@H](C)NC(=O)[C@H](NC(=O)[C@H](C)NC(=O)CNC(=O)[C@@H](NC=O)C(C)C)C(C)C)C(C)C)C(C)C)C(C)C)C(C)C)C(=O)N[C@@H](Cc1c[nH]c2ccccc12)C(=O)N[C@@H](C(=O)N[C@@H](Cc1c[nH]c2ccccc12)C(=O)NCCO)C(C)C [compound 9571] (For-VGA[dV]A[dV]V[dV]W[dV]W[dL]W[dV]W-NHCH2CH2OH) | 1.14 | 100.0 | + |
